From patent US11046709B2, “Fused 1,4-diazepines as BET bromodomain inhibitors” (THE REGENTS OF THE UNIVERSITY OF MICHIGAN, priority 2017, dated 2021)
Where two headings read alike, the source gives them in different places.

Legend:
[1] = biological target: T1, recombinant BRD4 BD1 (Homo sapiens, UniProt O60885); assay: Competitive fluorescence-polarization (FP) binding assay, BRD4 BD1
T1 construct: for recombinant BRD4 BD1 and BRD4 BD2 proteins

[2] = biological target: T2, recombinant BRD4 BD2 (Homo sapiens, UniProt O60885); assay: Competitive fluorescence-polarization (FP) binding assay, BRD4 BD2
T2 construct: for recombinant BRD4 BD1 and BRD4 BD2 proteins

[3] = tested on: MOLM-13; assay: Cell growth inhibition, 4-day proliferation assay, MOLM-13; format: cell-based; details: Homo sapiens
[4] = tested on: MDA-MB-231; assay: Cell growth inhibition, 4-day proliferation assay, MDA-MB-231; format: cell-based; details: Homo sapiens
Method in brief: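 Cells seeded at 3,000-10,000/well, treated with serially diluted compounds 4 days at 37 °C, 5% CO2. Viability by WST-8 (10% v/v, 1-2 h, A450); readings normalized to DMSO-treated cells, IC50 by four-parameter nonlinear regression.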

[5] = Plasma exposure after oral gavage in mice, LC-MS/MS; format: in vivo; details: mouse, plasma, mice, oral gavage 25 mg/kg; for concentration at 1 h: read-out: Plasma concentration (ng/mL) 1 h; for concentration at 3 h: read-out: Plasma concentration (ng/mL) 3 h; for concentration at 6 h: read-out: Plasma concentration (ng/mL) 6 h
Description: For a number of representative compounds in Table 5, their plasma exposures with oral administration in mice via oral gavage were determined by LC-MS/MS, with the data shown in Table 9.

[6] = tested on: RS4;11; assay: Cell growth inhibition, 4-day proliferation assay, RS4;11; format: cell-based; details: Homo sapiens, RS4-11, 96 h, read-out: Cell IC50 (nM) RS4;11
Description: The effect of representative Compounds of the Disclosure on cell viability was determined in a 4-day proliferation assay. Cells were maintained in the appropriate culture medium with 100/0 FBS at 37° C. and an atmosphere of 5% CO2. All the cell lines were used within three months of thawing fresh vials.
In general, cells were seeded in 96-well flat bottom (Corning COSTAR, Corning, N.Y., cat #3595) or white opaque cell culture plates (BD Falcon, cat #353296) at a density of 3,000-10,000 cells/well in 75 μl of culture medium. Compounds were serially diluted in the appropriate medium, and 75 μl of the diluted compounds were added to the appropriate wells of the cell plate. After the addition of compounds, the cells were incubated at 37° C. in an atmosphere of 5% CO2 for 4 days. Cell viability was determined using the CellTiter-Glo® Luminescent Cell Viability Assay Kit (Promega, Madison, Wis.) for leukemia cells and WST (2-(2-methoxy-4-nitrophenyl)-3-(4-nitrophenyl)-5-(2,4-disulfophenyl)-2H-tetrazolium, monosodium salt) Cell Counting-8 Kit (Dojindo Molecular Technologies, Inc., Rockville, Md.) for adherent cells according to the manufacturers' instructions.
For WST assay (adherent cells), WST-8 reagent was added to each well at a final concentration of 10% (v/v), and then the plates were incubated at 37° C. for 1-2 hours for color development. The absorbance was measured at 450 nm using a SPECTRAmax PLUS plate reader (Molecular Devices, Sunnyvale, Calif.). The readings were normalized to the DMSO-treated cells and the half maximal inhibitory concentration (IC50) was calculated by nonlinear regression (four parameters sigmoid fitted with variable slope, least squares fit, and no constraint) analysis using the GraphPad Prism 5 software (GraphPad Software, La Jolla, Calif.).
For CellTiter-Glo assay (suspension cells), 100 μl of CellTiter-Glo® Reagent was added to each well, and then the plates were incubated at room temperature for 10-20 minutes. The luminescent signal was measured using a Tecan Infinite M1000 multimode microplate reader (Tecan, Morrisville, N.C.). The readings were normalized to the DMSO-treated cells and the IC50 was calculated by nonlinear regression (four parameters sigmoid fitted with variable slope, least squares fit, and no constraint) analysis using the GraphPad Prism 5 software. See US 2014/0256706.
For a number of representative compounds in Table 5, their IC50 values in cell growth inhibition activity in the RS4;11 and MOLM-13 human leukemia cell lines and the MDA-MB-231 breast cancer cell line were evaluated using the WST-8 assay described in EXAMPLE 7, with the data shown in Table 7.

[7] = competitive FP, Table 6, read-out: IC50 as determinined in FP assays BRD4 BD1
[8] = competitive FP, Table 6, read-out: IC50 as determinined in FP assays BRD4 BD2
[9] = MOLM-13, WST-8 assay, Table 7, read-out: Cell growth inhibition (IC50 (nM)) MOLM-13
[10] = MDA-MB-231, WST-8 assay, Table 7, read-out: Cell growth inhibition (IC50 (nM)) MDA-MB-231

With `Cc1c(C#Cc2ccccn2)sc2c1C(c1ccc(Cl)cc1)=N[C@@H](CC(=O)N1CCN(C)CC1)c1nnc(C)n1-2` [Compound 119, (S)-2-(4-(4-chlorophenyl)-3,9-dimethyl-2-(pyridin-2-ylethynyl)-6H-thieno[3,2-f][1,2,4]triazolo[4,3-a][1,4]diazepin-6-yl)-1-(4-methylpiperazin-1-yl)ethan-1-one] the IC50 [1, 7] was 6.9 nM, the IC50 [2, 8] was 140 nM and the IC50 [3, 9] was 20.9 nM. For the same compound, the IC50 [4, 10] was 38.1 nM, the concentration at 1 h [5] was 632 ng/mL and the concentration at 3 h [5] was 370 ng/mL. It also gave a concentration at 6 h [5] of 52 ng/mL.

`Cc1nnc(C[C@@H]2N=C(c3ccc(Cl)cc3)c3c(sc(C#CC(C)(C)O)c3C)-n3c(C)nnc32)o1` [Compound 144, (S)-4-(4-(4-chlorophenyl)-3,9-dimethyl-6-((5-methyl-1,3,4-oxadiazol-2-yl)methyl)-6H-thieno[3,2-f][1,2,4]triazolo[4,3-a][1,4]diazepin-2-yl)-2-methylbut-3-yn-2-ol] gave an IC50 [1, 7] of 21.8 nM, an IC50 [2, 8] of 26.4 nM and an IC50 [3, 9] of 36.4 nM. It also gave an IC50 [4, 10] of 288 nM, a concentration at 1 h [5] of 4160 ng/mL and a concentration at 3 h [5] of 7580 ng/mL. The concentration at 6 h [5] was 1120 ng/mL.

Work on `Cc1nnc(C[C@@H]2N=C(c3ccc(Cl)cc3)c3c(sc(C#CC4CCNCC4)c3C)-n3c(C)nnc32)o1` [Compound 174, (S)-2-((4-(4-chlorophenyl)-3,9-dimethyl-2-(piperidin-4-ylethynyl)-6H-thieno[3,2-f][1,2,4]triazolo[4,3-a][1,4]diazepin-6-yl)methyl)-5-methyl-1,3,4-oxadiazole] yielded an IC50 [1, 7] of 49.9 nM, an IC50 [2, 8] of 46 nM and an IC50 [3, 9] of 3.1 nM. It also gave an IC50 [4, 10] of 9.43 nM, a concentration at 1 h [5] of 56 ng/mL and a concentration at 3 h [5] of 12 ng/mL. For the same compound, the concentration at 6 h [5] was 3 ng/mL.

Compound `Cc1nnc(C[C@@H]2N=C(c3ccc(Cl)cc3)c3c(sc(C#CC4CCN(C)CC4)c3C)-n3c(C)nnc32)o1` [Compound 175, (S)-2-((4-(4-chlorophenyl)-3,9-dimethyl-2-((1-methylpiperidin-4-yl)ethynyl)-6H-thieno[3,2-f][1,2,4]triazolo[4,3-a][1,4]diazepin-6-yl)methyl)-5-methyl-1,3,4-oxadiazole] has an IC50 [1, 7] of 31.8 nM, an IC50 [2, 8] of 93.2 nM and an IC50 [3, 9] of 5 nM. It also gave an IC50 [4, 10] of 3.96 nM, a concentration at 1 h [5] of 413 ng/mL and a concentration at 3 h [5] of 384 ng/mL. It also gave a concentration at 6 h [5] of 68 ng/mL.

Work on `CCNC(=O)C[C@@H]1N=C(c2ccc(Cl)cc2)c2c(sc(C#Cc3ccccn3)c2C)-n2c(C)nnc21` [Compound 110, (S)-2-(4-(4-chlorophenyl)-3,9-dimethyl-2-(pyridin-2-ylethynyl)-6H-thieno[3,2-f][1,2,4]triazolo[4,3-a][1,4]diazepin-6-yl)-N-ethylacetamide] yielded an IC50 [1, 7] of 8.5 nM, an IC50 [2, 8] of 27.5 nM and an IC50 [3, 9] of 47.7 nM. The IC50 [4, 10] was 310 ± 100 nM, the concentration at 1 h [5] was 1540 ng/mL and the concentration at 3 h [5] was 1160 ng/mL. The concentration at 6 h [5] was 123 ng/mL.

Work on `Cc1c(C#Cc2ccccn2)sc2c1C(c1ccc(Cl)cc1)=N[C@@H](CC(=O)Nc1ccc(O)cc1)c1nnc(C)n1-2` [Compound 125, (S)-2-(4-(4-chlorophenyl)-3,9-dimethyl-2-(pyridin-2-ylethynyl)-6H-thieno[3,2-f][1,2,4]triazolo[4,3-a][1,4]diazepin-6-yl)-N-(4-hydroxyphenyl)acetamide] yielded an IC50 [1, 7] of 10.2 nM, an IC50 [2, 8] of 13.9 nM and an IC50 [3, 9] of 31 nM. For the same compound, the IC50 [4, 10] was 132 nM, the concentration at 1 h [5] was 2520 ng/mL and the concentration at 3 h [5] was 407 ng/mL. The concentration at 6 h [5] was 83 ng/mL.

With `Cc1c(C#Cc2ccc3[nH]ncc3c2)sc2c1C(c1ccc(Cl)cc1)=NCc1nnc(C)n1-2` [compound 41, 2-((1H-indazol-5-yl)ethynyl)-4-(4-chlorophenyl)-3,9-dimethyl-6H-thieno[3,2-f][1,2,4]triazolo[4,3-a][1,4]diazepine] the IC50 [6] was 278 nM and the IC50 ([4]; MDA-MB-231, 96 h, read-out: Cell IC50 (nM) MDA-MB-231) was 680 nM.

Work on `Cc1nnc(C[C@@H]2N=C(c3ccc(Cl)cc3)c3c(sc(C#CC4CC4)c3C)-n3c(C)nnc32)o1` [Compound 143, (S)-2-((4-(4-chlorophenyl)-2-(cyclopropylethynyl)-3,9-dimethyl-6H-thieno[3,2-f][1,2,4]triazolo[4,3-a][1,4]diazepin-6-yl)methyl)-5-methyl-1,3,4-oxadiazole] yielded an IC50 [1, 7] of 8.86 nM, an IC50 [2, 8] of 21.6 nM and an IC50 [3, 9] of 6.06 nM. The IC50 [4, 10] was 6.59 nM, the concentration at 1 h [5] was 3170 ng/mL and the concentration at 3 h [5] was 2700 ng/mL. For the same compound, the concentration at 6 h [5] was 3670 ng/mL.

For `Cc1c(C#Cc2ccccn2)sc2c1C(c1ccc(Cl)cc1)=N[C@@H](CC(N)=O)c1nnc(C)n1-2` [Compound 109, (S)-2-(4-(4-chlorophenyl)-3,9-dimethyl-2-(pyridin-2-ylethynyl)-6H-thieno[3,2-f][1,2,4]triazolo[4,3-a][1,4]diazepin-6-yl)acetamide], the IC50 [1, 7] was 3.8 nM, the IC50 [2, 8] was 282 nM and the IC50 [3, 9] was 7.2 nM. It also gave an IC50 [4, 10] of 2.57 nM, a concentration at 1 h [5] of 2170 ng/mL and a concentration at 3 h [5] of 609 ng/mL. It also gave a concentration at 6 h [5] of 184 ng/mL.

For `Cc1c(C#Cc2cnn(C)c2)sc2c1C(c1ccc(Cl)cc1)=NCc1nnc(C)n1-2` [compound 23, 4-(4-chlorophenyl)-3,9-dimethyl-2-((1-methyl-1H-pyrazol-4-yl)ethynyl)-6H-thieno[3,2-f][1,2,4]triazolo[4,3-a][1,4]diazepine], the IC50 [1] was 14.3 nM, the IC50 [2] was 63.1 nM and the IC50 [6] was > 100 nM. The IC50 ([3]; MOLM-13, 96 h, read-out: Cell IC50 (nM) MOLM13) was > 100 nM.
